ChEMBL document CHEMBL1201862, “PubChem BioAssay data set” (2004)
Active and inactive are the calls of the source.

Legend:
[1] = NIH-3T3 fibroblast cytotoxicity, dose response, cytotoxicity control, cell-based, fluorescence, Alamar Blue, secondary assay (AID 2327); type: functional;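 also: NIH-3T3 mouse fibroblasts cultured with fluconazole at 8 µg/mL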
[2] = microbe, parasite or virus in culture; type: functional; details: Mycobacterium tuberculosis
[3] = (§1) Counterscreen for antagonists of the orexin 1 receptor (OX1R; HCRTR1): Fluorescence-based cell-based high throughput dose response assay to identify antagonists of the parental CHO cell line. [Related pubchem assays (depositor defined):AID434989, AID435008, AID463079, AID485270, AID492963, AID492964, AID492965, AID493232, AID504699, AID504701]; type: functional
[4] = molecular target: T1, Orexin/Hypocretin receptor type 1 (Homo sapiens, UniProt O43613); test: (§2) Fluorescence-based cell-based high throughput dose response assay for antagonists of the orexin 1 receptor (OX1R; HCRTR1). [Related pubchem assays (depositor defined):AID434989, AID435008, AID463079, AID485270, AID492963, AID492964, AID492965, AID493232, AID504717, AID504718]; type: functional
T1 sequence (O43613 whole entry): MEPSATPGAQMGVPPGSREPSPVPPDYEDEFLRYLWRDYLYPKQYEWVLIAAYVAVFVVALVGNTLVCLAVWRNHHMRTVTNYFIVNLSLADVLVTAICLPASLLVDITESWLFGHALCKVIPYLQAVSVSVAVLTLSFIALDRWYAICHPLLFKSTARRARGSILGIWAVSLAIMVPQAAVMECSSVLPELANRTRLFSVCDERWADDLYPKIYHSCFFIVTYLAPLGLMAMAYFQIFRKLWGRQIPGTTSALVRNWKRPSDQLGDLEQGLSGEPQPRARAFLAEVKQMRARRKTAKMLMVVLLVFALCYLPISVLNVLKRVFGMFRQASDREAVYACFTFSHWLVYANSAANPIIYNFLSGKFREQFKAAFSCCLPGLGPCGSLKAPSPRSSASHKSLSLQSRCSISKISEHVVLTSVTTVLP

Orexin receptor type 2 [5] = molecular target: T2, Orexin receptor type 2 (Homo sapiens, UniProt O43614); test: Counterscreen assay for antagonists of the orexin 1 receptor (OX1R; HCRTR1): Fluorescence-based cell-based dose response assay for antagonists of the orexin 2 receptor (OX2R; HCRTR2), run by assay provider.; type: functional
T2 sequence (O43614 whole entry): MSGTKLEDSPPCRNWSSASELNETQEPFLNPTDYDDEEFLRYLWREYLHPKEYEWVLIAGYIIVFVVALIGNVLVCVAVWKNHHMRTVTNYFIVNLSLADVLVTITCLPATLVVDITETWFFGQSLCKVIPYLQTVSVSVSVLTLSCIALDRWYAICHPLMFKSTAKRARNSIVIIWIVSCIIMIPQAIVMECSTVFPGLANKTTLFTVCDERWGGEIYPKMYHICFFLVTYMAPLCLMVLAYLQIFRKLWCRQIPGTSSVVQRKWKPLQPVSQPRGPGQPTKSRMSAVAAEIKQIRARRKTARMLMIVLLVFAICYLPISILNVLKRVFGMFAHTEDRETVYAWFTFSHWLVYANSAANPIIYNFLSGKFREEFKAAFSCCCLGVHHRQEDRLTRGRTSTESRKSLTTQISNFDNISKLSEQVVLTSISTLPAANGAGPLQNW

CHO-K1 = test: as §1, with “Homogeneous time resolved fluorescence (HTRF)-based” for “Fluorescence-based”, “cell-based” for “cell-based high throughput”, “CHO-K1” for “CHO”; type: functional; details: Cricetulus griseus
[6] = molecular target: T3, Probable nicotinate-nucleotide adenylyltransferase (Staphylococcus aureus (strain N315), UniProt P65502); type: functional, Staphylococcus aureus subsp. aureus N315;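 as to IC50 Mean: confirmatory dose-response retesting of NadD inhibitor hits first found in an ultra-high-throughput screen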
T3 sequence (P65502 whole entry): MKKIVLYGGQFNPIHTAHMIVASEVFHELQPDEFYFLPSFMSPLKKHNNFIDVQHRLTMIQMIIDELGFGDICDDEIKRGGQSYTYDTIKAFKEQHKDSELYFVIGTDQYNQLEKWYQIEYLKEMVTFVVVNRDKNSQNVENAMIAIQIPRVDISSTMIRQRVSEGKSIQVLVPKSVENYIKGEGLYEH

[7] = molecular target: T3, Probable nicotinate-nucleotide adenylyltransferase; type: functional, Staphylococcus aureus subsp. aureus N315; details: read-out: IC50_Mean
[8] = C. albicans growth with fluconazole, confirmation, fluorescence, retest (AID 2467); type: functional, cell-based
[9] = molecular target: T1, Orexin/Hypocretin receptor type 1; test: as §2, with “Homogeneous Time Resolved Fluorescence (HTRF)-based” for “Fluorescence-based”; type: functional
Orexin receptor type 2 [10] = molecular target: T2, Orexin receptor type 2; test: Counterscreen assay for antagonists of the orexin 1 receptor (OX1R; HCRTR1): Homogeneous Time Resolved Fluorescence (HTRF)-based cell-based dose response assay for antagonists of the orexin 2 receptor (OX2R; HCRTR2), run by assay provider.; type: functional
[11] = THP-1 cell cytotoxicity, dose response, cytotoxicity control for Vif-APOBEC3G degradation inhibitor project, THP-1 cells (AID 1117359); type: functional; details: Human immunodeficiency virus 1, THP-1
Vero [12] = test: Vero cell cytotoxicity, cytotoxicity control for flavivirus capping enzyme inhibitors (AID 588742); type: functional; details: Chlorocebus sabaeus
[13] = molecular target: 5-hydroxytryptamine receptor 5A (Homo sapiens, UniProt P47898); test: Counterscreen for agonists of OPRM1-OPRD1 heterodimerization: luminescence-based cell-based high throughput dose response assay to identify agonists of 5-hydroxytryptamine (serotonin) 5A receptor (HTR5A). [Related pubchem assays (depositor defined):AID504326, AID504355, AID504692, AID504904, AID504905]; type: functional
5-hydroxytryptamine receptor 5A, sequence (P47898 whole entry): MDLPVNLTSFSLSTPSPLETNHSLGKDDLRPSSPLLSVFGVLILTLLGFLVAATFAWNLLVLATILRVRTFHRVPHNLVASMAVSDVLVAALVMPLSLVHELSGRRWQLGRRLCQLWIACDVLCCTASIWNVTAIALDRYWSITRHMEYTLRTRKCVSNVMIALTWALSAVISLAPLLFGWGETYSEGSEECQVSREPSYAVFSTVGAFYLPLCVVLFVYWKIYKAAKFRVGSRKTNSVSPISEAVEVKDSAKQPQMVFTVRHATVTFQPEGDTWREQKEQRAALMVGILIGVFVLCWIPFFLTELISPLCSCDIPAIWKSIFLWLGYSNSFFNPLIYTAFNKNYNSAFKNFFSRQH

[14] = molecular target: T4, Short transient receptor potential channel 4 (Mus musculus, UniProt Q9QUQ5); test: mouse TRPC4 channel activators, dose response, cell-based, HEK293 TRPC4/mu-opioid, Fluo-4 calcium (AID 434937); type: functional
T4 sequence (Q9QUQ5 whole entry): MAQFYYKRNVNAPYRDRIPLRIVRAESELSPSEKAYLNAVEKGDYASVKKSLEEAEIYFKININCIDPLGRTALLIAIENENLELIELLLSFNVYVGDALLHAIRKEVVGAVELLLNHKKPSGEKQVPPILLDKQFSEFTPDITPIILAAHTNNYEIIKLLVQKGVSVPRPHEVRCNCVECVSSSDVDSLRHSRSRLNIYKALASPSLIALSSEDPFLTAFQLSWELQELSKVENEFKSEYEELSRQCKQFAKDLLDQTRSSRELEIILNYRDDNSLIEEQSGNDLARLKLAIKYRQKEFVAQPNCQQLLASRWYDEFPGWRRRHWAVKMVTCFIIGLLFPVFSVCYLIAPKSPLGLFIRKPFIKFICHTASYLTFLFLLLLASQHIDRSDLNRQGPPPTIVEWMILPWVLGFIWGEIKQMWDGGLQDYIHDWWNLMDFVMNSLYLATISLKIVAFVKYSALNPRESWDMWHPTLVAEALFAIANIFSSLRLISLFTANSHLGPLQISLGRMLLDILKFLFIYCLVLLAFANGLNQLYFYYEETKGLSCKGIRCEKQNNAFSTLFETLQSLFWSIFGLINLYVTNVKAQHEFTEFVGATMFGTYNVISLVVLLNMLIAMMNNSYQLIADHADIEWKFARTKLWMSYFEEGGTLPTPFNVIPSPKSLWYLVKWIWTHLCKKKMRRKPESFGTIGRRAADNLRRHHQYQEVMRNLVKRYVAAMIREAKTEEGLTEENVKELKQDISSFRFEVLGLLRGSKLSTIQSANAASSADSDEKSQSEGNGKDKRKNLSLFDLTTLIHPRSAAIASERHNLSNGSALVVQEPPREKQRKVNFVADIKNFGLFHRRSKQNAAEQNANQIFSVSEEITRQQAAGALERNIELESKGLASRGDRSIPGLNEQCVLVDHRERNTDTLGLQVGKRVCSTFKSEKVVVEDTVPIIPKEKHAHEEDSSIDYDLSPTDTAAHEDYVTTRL

[15] = molecular target: Delta-type opioid receptor (Homo sapiens, UniProt P41143); test: Counterscreen for agonists of heterodimerization of the mu 1 (OPRM1) and delta 1 (OPRD1) opioid receptors: Luminescence-based cell-based high throughput dose response assay to identify agonists of OPRD1 homodimerization. [Related pubchem assays (depositor defined):AID504326, AID504355, AID504692, AID504904, AID504905]; type: functional
Delta-type opioid receptor, sequence (P41143 whole entry): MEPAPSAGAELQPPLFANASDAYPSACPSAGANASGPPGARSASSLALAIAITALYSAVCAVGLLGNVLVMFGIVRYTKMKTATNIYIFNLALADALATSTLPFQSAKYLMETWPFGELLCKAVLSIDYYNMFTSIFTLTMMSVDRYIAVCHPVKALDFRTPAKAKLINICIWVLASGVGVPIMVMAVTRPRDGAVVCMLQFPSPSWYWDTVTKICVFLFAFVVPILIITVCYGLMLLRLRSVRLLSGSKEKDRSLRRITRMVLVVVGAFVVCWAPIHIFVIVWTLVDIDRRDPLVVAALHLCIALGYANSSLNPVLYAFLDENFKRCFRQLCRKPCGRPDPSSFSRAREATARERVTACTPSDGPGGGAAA

Mu-type opioid receptor = Mu-type opioid receptor (Homo sapiens, UniProt P35372); test: Counterscreen for agonists of heterodimerization of the mu 1 (OPRM1) and delta 1 (OPRD1) opioid receptors: Luminescence-based cell-based high throughput dose response assay to identify agonists of OPRM1 homodimerization.; type: functional;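 also: U2OS cells expressing OPRM1 and beta-arrestin as split beta-galactosidase partners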
Mu-type opioid receptor, sequence (P35372 whole entry): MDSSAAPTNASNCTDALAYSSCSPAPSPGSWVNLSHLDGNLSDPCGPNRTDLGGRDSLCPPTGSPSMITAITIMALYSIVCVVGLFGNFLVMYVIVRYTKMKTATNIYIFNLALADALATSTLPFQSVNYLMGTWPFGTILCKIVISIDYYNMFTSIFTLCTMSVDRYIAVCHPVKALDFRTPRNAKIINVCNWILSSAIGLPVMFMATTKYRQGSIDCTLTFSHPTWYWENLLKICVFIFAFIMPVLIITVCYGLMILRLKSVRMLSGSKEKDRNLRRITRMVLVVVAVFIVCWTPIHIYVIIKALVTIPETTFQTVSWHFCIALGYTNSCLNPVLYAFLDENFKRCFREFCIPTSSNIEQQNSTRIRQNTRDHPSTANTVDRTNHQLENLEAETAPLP

[16] = molecular target: T4, Short transient receptor potential channel 4; test: mouse TRPC4 channel inhibitors, dose response, cell-based, HEK293 TRPC4/mu-opioid, Fluo-4 calcium (AID 434942); type: functional;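 also: potency of inhibitors blocking the TRPC4 calcium response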
Genome polyprotein = Genome polyprotein (dengue virus type 2, UniProt P29990); test: Dengue-2 NS5 methyltransferase inhibitors, primary screen, biochemical, confirmation dose response (AID 588689); type: functional
Genome polyprotein, sequence (P29990 2492-3391 limits assumed): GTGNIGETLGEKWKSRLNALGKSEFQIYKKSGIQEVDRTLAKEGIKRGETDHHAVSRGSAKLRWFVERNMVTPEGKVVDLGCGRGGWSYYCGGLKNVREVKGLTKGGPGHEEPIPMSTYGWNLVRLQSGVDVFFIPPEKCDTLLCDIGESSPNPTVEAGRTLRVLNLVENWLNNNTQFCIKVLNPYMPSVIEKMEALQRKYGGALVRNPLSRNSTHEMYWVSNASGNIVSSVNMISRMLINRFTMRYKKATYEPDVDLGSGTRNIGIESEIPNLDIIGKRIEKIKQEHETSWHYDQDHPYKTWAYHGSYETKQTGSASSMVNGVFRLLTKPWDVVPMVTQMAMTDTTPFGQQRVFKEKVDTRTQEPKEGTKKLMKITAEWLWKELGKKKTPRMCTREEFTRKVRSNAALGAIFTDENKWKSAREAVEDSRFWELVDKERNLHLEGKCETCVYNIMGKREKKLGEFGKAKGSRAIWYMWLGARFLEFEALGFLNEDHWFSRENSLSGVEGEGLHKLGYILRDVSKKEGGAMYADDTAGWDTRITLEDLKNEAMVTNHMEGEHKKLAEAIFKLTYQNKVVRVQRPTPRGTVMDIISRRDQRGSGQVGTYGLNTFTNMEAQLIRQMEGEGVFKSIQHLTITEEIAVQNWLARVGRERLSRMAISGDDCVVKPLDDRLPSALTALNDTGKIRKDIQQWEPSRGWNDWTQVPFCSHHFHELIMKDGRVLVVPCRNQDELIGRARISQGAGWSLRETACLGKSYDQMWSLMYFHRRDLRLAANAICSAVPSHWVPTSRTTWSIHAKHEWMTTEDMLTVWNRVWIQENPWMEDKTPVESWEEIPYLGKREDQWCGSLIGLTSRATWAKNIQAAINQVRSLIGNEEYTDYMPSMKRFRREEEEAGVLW

[17] = molecular target: T5, Hepatocyte nuclear factor 4-alpha (Homo sapiens, UniProt P41235); type: functional, cell-based;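 also: biochemical luminescence-based dose-response counterscreen measuring inhibition of HNF4 dimerization, run alongside a screen for blockers of ABHD5–perilipin-5 interaction; split luciferase complementation of HNF4 fusion proteins in cell lysate measuring dimerization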
T5 sequence (P41235 whole entry): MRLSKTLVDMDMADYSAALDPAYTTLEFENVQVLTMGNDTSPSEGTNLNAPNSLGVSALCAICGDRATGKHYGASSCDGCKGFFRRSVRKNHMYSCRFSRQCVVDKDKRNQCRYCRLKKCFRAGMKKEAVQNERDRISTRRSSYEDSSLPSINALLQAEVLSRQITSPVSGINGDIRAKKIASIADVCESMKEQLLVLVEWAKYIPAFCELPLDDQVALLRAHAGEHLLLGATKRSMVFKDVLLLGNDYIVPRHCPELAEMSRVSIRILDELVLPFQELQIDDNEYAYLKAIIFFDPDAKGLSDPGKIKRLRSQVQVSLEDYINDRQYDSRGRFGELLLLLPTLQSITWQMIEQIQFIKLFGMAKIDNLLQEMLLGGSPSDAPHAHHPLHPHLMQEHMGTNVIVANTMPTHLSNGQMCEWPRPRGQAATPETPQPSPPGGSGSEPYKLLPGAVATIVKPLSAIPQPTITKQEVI

INS1 = test: beta cell apoptosis inhibitors, cytokine rescue, dose response, luminescence, retest (AID 449756); type: functional, cell-based; details: Rattus norvegicus;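 also: cell death triggered by IL-1 beta plus TNF-alpha plus IFN-gamma mixture; protective hits raise ATP signal compared with cytokine alone wells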
[18] = inhibitors of PGC1a acetylation in cells, dose response, cell-based, cherry-picked samples (AID 720514); type: functional;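 also: potency may reflect raised or lowered acetylation signal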
[19] = inhibitors of intracellular T. cruzi replication, confirmation, NIH3T3 host cells, beta-gal luminescence (AID 2044); type: functional, cell-based;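 also: intracellular parasites grown in NIH/3T3 mouse fibroblasts as host cells; luminescent beta-galactosidase reporter signal from transgenic T. cruzi replicating inside host cells; inhibitors lower the luminescence signal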
[20] = cytotoxicity toward NIH3T3 fibroblasts, dose response, counter-screen, cell-based, ATP luminescence, mouse fibroblasts (AID 2010); type: functional;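 also: cells exposed to compound for about 90 hours before reading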
Large T antigen = Large T antigen (Simian virus 40, UniProt P03070); type: functional, Betapolyomavirus macacae;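 also: Confirmatory-stage PubChem screen for compounds that inhibit SV40 T antigen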
Large T antigen, sequence (P03070 whole entry): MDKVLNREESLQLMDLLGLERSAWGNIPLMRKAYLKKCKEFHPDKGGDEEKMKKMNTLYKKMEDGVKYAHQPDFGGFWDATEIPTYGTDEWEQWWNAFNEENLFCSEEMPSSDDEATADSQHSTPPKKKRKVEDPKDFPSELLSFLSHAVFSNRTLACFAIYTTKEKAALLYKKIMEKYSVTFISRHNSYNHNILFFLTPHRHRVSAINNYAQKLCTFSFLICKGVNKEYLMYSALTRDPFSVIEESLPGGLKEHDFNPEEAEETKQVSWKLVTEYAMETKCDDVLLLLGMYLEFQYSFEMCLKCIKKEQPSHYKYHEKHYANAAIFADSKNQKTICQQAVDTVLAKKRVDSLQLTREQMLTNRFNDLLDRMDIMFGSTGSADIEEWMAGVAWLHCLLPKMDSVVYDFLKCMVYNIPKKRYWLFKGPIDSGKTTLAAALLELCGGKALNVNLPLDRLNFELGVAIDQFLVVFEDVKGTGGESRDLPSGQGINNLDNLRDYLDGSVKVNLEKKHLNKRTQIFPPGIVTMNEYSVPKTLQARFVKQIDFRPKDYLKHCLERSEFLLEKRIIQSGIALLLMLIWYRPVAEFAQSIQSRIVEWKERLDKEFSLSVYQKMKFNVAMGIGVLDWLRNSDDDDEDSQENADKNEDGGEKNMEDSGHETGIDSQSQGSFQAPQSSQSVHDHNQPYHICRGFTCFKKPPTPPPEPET

cells = type: functional, cell-based; details: HEK-CNG
Vero [21] = test: cells; type: functional; details: Chlorocebus sabaeus
Vero [22] = test: cells; type: functional, cell-based; details: Chlorocebus sabaeus
Paired box protein Pax-8 = Paired box protein Pax-8 (Homo sapiens, UniProt Q06710); test: inhibitors of PAX8-driven TPO luciferase reporter, dose response, RMG-I cells, cherry-pick (AID 687027); type: functional, cell-based;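 also: luciferase reporter driven by Pax8 target thyroperoxidase promoter measured by SteadyGlo luminescence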
Paired box protein Pax-8, sequence (Q06710 whole entry): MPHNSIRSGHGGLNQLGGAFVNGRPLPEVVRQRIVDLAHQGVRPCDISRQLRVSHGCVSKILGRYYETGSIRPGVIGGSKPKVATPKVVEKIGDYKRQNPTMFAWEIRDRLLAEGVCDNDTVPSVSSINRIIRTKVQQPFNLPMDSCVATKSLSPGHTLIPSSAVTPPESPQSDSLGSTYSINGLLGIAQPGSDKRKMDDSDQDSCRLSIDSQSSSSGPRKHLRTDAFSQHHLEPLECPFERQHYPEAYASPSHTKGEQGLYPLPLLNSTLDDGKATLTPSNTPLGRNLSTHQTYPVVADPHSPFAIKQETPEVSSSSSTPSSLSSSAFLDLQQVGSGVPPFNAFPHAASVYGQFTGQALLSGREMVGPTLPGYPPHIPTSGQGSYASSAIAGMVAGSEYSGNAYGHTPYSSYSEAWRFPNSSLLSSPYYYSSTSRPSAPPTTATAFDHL

Galanin receptor type 3 = molecular target: T6, Galanin receptor type 3 (Homo sapiens, UniProt O60755); test: Fluorescence-based cell-based primary high throughput dose response assay to identify antagonists of the Galanin Receptor 3 (GalR3).; type: functional
T6 sequence (O60755 whole entry): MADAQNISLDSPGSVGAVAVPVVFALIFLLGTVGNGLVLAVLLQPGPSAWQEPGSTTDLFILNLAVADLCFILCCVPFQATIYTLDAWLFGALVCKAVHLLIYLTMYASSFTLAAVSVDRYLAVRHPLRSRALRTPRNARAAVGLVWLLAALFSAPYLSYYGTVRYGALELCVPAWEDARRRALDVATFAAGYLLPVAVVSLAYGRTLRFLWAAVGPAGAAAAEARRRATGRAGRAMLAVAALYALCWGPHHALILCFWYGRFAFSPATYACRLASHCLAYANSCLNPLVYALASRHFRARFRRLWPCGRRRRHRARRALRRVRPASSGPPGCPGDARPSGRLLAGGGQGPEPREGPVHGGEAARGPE

## O=C(Nc1nnc(-c2ccccc2)o1)c1cc(-c2cccs2)nc2ccccc12
[1]
  EC50: > 150 µM (inconclusive)
[2]
  CC50: 38.7 µM (active)
[3]
  IC50: 43.7 µM (inactive)
[4]
  IC50: 30.4 µM (inactive)
Orexin receptor type 2 [5]
  IC50: 8.5 µM (active)
CHO-K1
  IC50: > 66.2 µM (inactive)
[6]
  IC50: 6.82 µM (active)
[7]
  IC50: 19.5 µM (active)
[8]
  EC50: 1.15 µM (active)
[9]
  IC50: 6.15 µM (active)
Orexin receptor type 2 [10]
  IC50: > 50 µM (inactive)

## Oc1ccc(NCc2cccc(OCc3ccccc3)c2)cc1
[11]
  CC50: 36.2 µM (active)
Vero [12]
  CC50: > 40 µM (active)

## CCCC(=O)NC(C)C(c1cccs1)N1CCN(c2ccccc2)CC1 (stereo unspecified)
[13]
  EC50: > 92.5 µM (inactive)
[14]
  EC50: 0.267 µM (active)
[15]
  EC50: > 92.5 µM (inactive)
Mu-type opioid receptor
  EC50: > 92.5 µM (inactive)

## CCOC(=O)c1c(NC(=O)/C=C/C(=O)O)sc(C)c1-c1ccc(C(C)(C)C)cc1
[16]
  EC50: 5.31 µM (active)
Genome polyprotein
  IC50: 25.6 µM (active)
[17]
  IC50: 17.4 µM (inactive)
Vero [12]
  CC50: 10.6 µM (active)
INS1
  AC50: 4.33 µM (active)
[18]
  AC50: 32.8 µM (active)
[19]
  EC50: 3.42 µM (active)
[20]
  EC50: > 60 µM (not active)
Large T antigen
  IC50: 20.8 µM (active)

## CCOC(=O)c1ccc2[nH]c(C)c(C)c2c1
[3]
  IC50: > 49.8 µM (inactive)
[4]
  IC50: 20.2 µM (inactive)
Orexin receptor type 2 [5]
  IC50: 18.8 µM (inactive)
CHO-K1
  IC50: > 66.3 µM (inactive)
[9]
  IC50: 5.45 µM (active)
Orexin receptor type 2 [10]
  IC50: 13.5 µM (inactive)

## COc1ccc(C(CNC(=O)C(C)c2ccc3cc(OC)ccc3c2)N(C)C)cc1 (stereo unspecified)
[13]
  EC50: > 92.4 µM (inactive)
[14]
  EC50: 0.473 µM (active)
[15]
  EC50: > 92.4 µM (inactive)
Mu-type opioid receptor
  EC50: > 92.4 µM (inactive)

## C[C@]12CC[C@H]3[C@@H](CC[C@@]4(O)C[C@@H](O)CC[C@]34C=O)[C@]1(O)CC[C@@H]2C1=CC(=O)OC1
cells
  EC50: > 29.9 µM (inactive)
Vero [21]
  CC50: 1.65 µM (active)
Vero [22]
  IC50: < 0.05 µM (active)
Paired box protein Pax-8
  AC50: 3.39 µM (active)
Galanin receptor type 3
  IC50: > 29.9 µM (inactive)
